Active and inactive are the calls of the source.
How the values were obtained:
Protein Wnt-3a = Protein Wnt-3a (Mus musculus, UniProt P27467); assay: SAR analysis of small molecule antagonists of Gli-SUFU in a Wnt3a luminescent reporter assay.; assay type: functional
[1] = CellTiter-Glo luminescence survival assay, SW480 colon tumor line, concentration-response curve, half-maximal inhibitory concentration (AID 1117338); assay type: functional
[2] = RKO cell viability reduction, dose response, CellTiter-Glo luminescence (AID 1117322); assay type: functional
[3] = cytotoxicity toward HCT116 cells – cell-based, CellTiter-Glo luminescence, IC50, dose response (AID 1117332); assay type: functional; details: HCT-116
[4] = SNU-C1 cell viability reduction, dose response, CellTiter-Glo luminescence (AID 1117323); assay type: functional, cell-based
[5] = cytotoxicity toward Colo320 cells – cell-based, CellTiter-Glo luminescence, IC50, dose response (AID 1117334); assay type: functional; details: COLO 320
[6] = Reduced DLD-1 viability, concentration-response, CellTiter-Glo luminescence (AID 1117352); assay type: functional
[7] = cytotoxicity toward HT-29 cells – cell-based, CellTiter-Glo luminescence, IC50, dose response (AID 1117330); assay type: functional
[8] = HCT116 cell viability decrease, GSK3B pretreatment – CellTiter-Glo, IC50, dose response (AID 1117339); assay type: functional; details: HCT-116
fMet-Leu-Phe receptor = fMet-Leu-Phe receptor (Homo sapiens, UniProt P21462); assay: formyl peptide receptor binders – dose response (AID 519); assay type: functional
[9] = Luminescence Cell-Based Dose Response HTS to Identify Inhibitors of 5'UTR Stem-Loop Driven Prion Protein mRNA Translation in H4 Neuroglioblastoma Cells. [Related pubchem assays: 1827 (Project Summary), 1813 (Primary HTS)]; assay type: functional
[10] = alpha-synuclein stem-loop luciferase translation blockers – H4 neuroglioma cells, luminescence, confirmation (AID 1988); assay type: functional, cell-based
HEK293 [11] = assay: EBV LMP1 TES2 canonical NF-kB signalling blockers – cell-based, HEK293, luciferase, cherry-pick, dose response (AID 588343); assay type: functional; details: Homo sapiens
[12] = A549 cell cytotoxicity, dose response, cytotoxicity control, plate reader, cherry-pick, antagonist series (AID 743412); assay type: functional, cell-based
[13] = toxicity toward HepG2 liver cells – cell-based, plate reader, cherry-pick, antagonist series, cytotoxicity control, dose response (AID 743416); assay type: functional
[14] = blockers of bursicon-stimulated LGR2 cAMP reporter – cell-based, HEK293, CRE-luciferase reporter, cherry pick, set 2, dose response (AID 743343); assay type: functional;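 further: transfected cells were stimulated with diluted bursicon conditioned medium after compound addition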
[15] = blockade of melanocortin 4 receptor signaling – cell-based, plate reader, cherry pick, counter-screen for LGR2 antagonist project, dose response (AID 743444); assay type: functional;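 further: transfected HEK 293 cells stimulated with alpha-MSH peptide; potency of inhibitors of the alpha-MSH evoked signal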
[16] = biological target: Oxysterols receptor LXR-beta (Homo sapiens, UniProt P55055); assay type: functional, cell-based;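 further: Cell-based luminescence dose-response assay of agonist activity at LXR, run as a confirmatory counterscreen to a daf-12 agonist screen; HEK293 cells with Gal4-LXR fusion and GAL4-driven luciferase reporter; agonist potency from rising luciferase signal of a Gal4-LXR reporter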
[17] = viability loss in HEK293 cells – cell-based, plate reader, cherry-picked samples, cytotoxicity control, dose response (AID 743446); assay type: functional
[18] = T. cruzi growth inhibition in host cells, dose response, cell-based, plate reader, dry powder, set 2 (AID 652275); assay type: functional
HEK293 [19] = assay: viability loss in HEK293T cells – cell-based, ATP luminescence, cherry-pick samples, cytotoxicity control, dose response (AID 687005); assay type: functional; details: Homo sapiens;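 further: cells exposed to compound for 48 hours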
[20] = HEK293 Cytotoxicity Assay Measured in Cell-Based System Using Plate Reader - 7071-01_Inhibitor_Dose_CherryPick_Activity_Set2.; assay type: functional
[21] = reduction of Shn3 3'UTR-driven luciferase in osteoblasts – cell-based, Clone20 osteoblasts, firefly luciferase, cherry-picked, dose response (AID 624132); assay type: functional;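 further: firefly luciferase luminescence from reporter carrying the Shn3 3'UTR in osteoblasts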
[22] = loss of viability in HepG2 cells – cell-based, CellTiter-Glo, cherry-picked, cytotoxicity control for Shn3 inhibitor project, dose response (AID 624134); assay type: functional
[23] = non-specific 3'UTR reporter inhibition in Clone20-Shn3RL – cell-based, Renilla luciferase, cherry-picked, counter-screen for Shn3 inhibitor project, dose response (AID 624133); assay type: functional
[24] = Shn3 3'UTR reporter signal decrease – cell-based, Clone20 osteoblasts, firefly luciferase, cherry-pick, set 2, Schnurri-3 inhibitor project, dose response (AID 720490); assay type: functional;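 further: actives lower the luminescence signal as inhibitors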
[25] = biological target: NAD-dependent protein deacylase sirtuin-5, mitochondrial (Homo sapiens, UniProt Q9NXA8); assay: sirtuin-5 deacylation blockers, concentration series – biochemical, fluorescence imaging, cherry-pick, set 5, dose response (AID 720591);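 further: desuccinylation of succinyl peptide AMC substrate read as fluorescence after trypsin release; potency of inhibitors that lower fluorescence and may act on trypsin instead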
[26] = Luminescence Cell-Based Dose Response HTS to Identify Activators of Luciferase Translation or Activity in H4 […] Cells. [Related pubchem assays: 1829 (Project Summary), 1814 (Primary HTS)]; assay type: functional
[27] = viability loss in Vero cells – cytotoxicity control for Vif-APOBEC3G degradation inhibitor project, dose response (AID 1117358); assay type: functional; details: Vero

Chain of Protein Wnt-3a (P27467 whole entry): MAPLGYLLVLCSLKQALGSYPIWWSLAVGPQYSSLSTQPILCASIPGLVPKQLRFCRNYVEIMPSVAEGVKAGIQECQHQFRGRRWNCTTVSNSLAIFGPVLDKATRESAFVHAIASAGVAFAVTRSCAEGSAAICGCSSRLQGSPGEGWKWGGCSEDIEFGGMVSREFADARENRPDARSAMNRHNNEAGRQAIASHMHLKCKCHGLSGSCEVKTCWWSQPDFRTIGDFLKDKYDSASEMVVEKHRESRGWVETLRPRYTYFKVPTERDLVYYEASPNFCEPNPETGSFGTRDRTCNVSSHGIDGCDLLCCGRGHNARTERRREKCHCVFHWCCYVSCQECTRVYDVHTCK
Chain of Oxysterols receptor LXR-beta (P55055 whole entry, the tested form may be a part): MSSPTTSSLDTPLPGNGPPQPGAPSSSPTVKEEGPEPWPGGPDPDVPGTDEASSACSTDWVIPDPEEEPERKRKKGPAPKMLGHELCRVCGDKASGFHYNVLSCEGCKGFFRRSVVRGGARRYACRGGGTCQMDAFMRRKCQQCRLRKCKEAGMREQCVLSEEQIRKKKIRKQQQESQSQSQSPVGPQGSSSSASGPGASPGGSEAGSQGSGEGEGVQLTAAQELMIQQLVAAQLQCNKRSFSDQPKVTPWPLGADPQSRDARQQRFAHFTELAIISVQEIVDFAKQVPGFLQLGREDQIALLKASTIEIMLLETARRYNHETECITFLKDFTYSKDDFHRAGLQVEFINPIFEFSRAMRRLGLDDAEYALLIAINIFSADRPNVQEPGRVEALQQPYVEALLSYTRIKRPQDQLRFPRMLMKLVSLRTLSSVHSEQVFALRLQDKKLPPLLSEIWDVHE
Chain of fMet-Leu-Phe receptor (P21462 whole entry): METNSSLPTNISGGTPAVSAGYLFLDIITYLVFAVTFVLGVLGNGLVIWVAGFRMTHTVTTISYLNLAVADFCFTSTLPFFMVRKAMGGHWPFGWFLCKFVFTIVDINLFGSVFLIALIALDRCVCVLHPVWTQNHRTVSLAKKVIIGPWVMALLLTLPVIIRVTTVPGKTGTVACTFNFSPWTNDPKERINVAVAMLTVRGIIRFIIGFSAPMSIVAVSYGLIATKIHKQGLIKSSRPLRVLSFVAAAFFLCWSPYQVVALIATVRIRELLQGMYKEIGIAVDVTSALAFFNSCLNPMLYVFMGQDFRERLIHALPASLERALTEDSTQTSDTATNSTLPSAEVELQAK
Chain of NAD-dependent protein deacylase sirtuin-5, mitochondrial (Q9NXA8 whole entry): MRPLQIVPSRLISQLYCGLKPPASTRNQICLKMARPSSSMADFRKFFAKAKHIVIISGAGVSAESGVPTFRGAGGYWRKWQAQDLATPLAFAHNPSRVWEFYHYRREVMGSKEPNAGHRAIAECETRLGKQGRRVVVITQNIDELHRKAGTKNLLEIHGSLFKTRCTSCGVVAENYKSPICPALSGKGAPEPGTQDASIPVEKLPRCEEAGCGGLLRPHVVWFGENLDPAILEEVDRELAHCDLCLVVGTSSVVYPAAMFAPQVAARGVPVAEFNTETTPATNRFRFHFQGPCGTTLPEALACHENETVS

SMILES: CN1CCN(c2cc(NC(=O)c3ccccc3)ncn2)CC1
- IC50 (Protein Wnt-3a): > 21.8 µM (inactive)

SMILES: O=C(Nc1cc(N2CCCCC2)ncn1)c1ccccc1
- IC50 (Protein Wnt-3a): > 21.8 µM (inactive)

SMILES: COc1ccc(-n2nc(CCC(=O)N(C)O)cc2-c2ccc(Cl)cc2)cc1 [TEPOXALIN]
- IC50 [1]: 2.81 µM (active)
- IC50 [2]: 4.11 µM (active)
- IC50 [3]: 6.55 µM (inactive)
- IC50 [4]: 1.75 µM (active)
- IC50 [5]: 0.662 µM (active)
- IC50 [6]: 2.08 µM (active)

SMILES: CCN(CC)C(=O)c1cccnc1 [NIKETHAMIDE]
- IC50 [1]: > 20 µM (inactive)
- IC50 [2]: > 20 µM (inactive)
- IC50 [3]: > 20 µM (inactive)
- IC50 [4]: > 20 µM (inactive)
- IC50 [5]: > 20 µM (inactive)
- IC50 [7]: > 20 µM (inactive)
- IC50 [6]: > 20 µM (inactive)
- IC50 [8]: > 20 µM (inactive)

SMILES: O=C(NCc1cccnc1)C1c2ccccc2C(=O)N1C1CCCCCCC1 (centres undefined)
- Ki (fMet-Leu-Phe receptor): 40.9 µM (inactive)

SMILES: Cc1ccc(CSc2nc3cc[nH]cc-3n2)cc1
- EC50 [9]: 10.8 µM (active)
- EC50 [10]: 7.38 µM (active)
- AC50 (HEK293 [11]): 1.9 µM (active)
- AC50 [12]: 26.5 µM (active)
- AC50 [13]: 31.6 µM (active)
- AC50 [14]: 2.93 µM (active)
- AC50 [15]: 2.98 µM (active)
- EC50 [16]: > 67.5 µM (inactive)
- AC50 [17]: > 52 µM (inactive)
- EC50 (cells): > 67.5 µM (inactive)

SMILES: O=C(Cc1ccccn1)N1CCCCN2[C@@H](CO)[C@H](c3ccc(Br)cc3)[C@@H]2C1
- AC50 [18]: 2.31 µM (active)

SMILES: Cc1ccc(C2=NN(C(=O)c3ccc(Br)o3)C(c3ccc(C)cc3)C2)cc1 (centres undefined)
- AC50 (HEK293 [19]): 20.2 µM (active)
- AC50 [20]: 20.2 µM (active)

SMILES: O=C(Nc1ccc(Cl)cc1)c1cc(S(=O)(=O)N2CCOCC2)cs1
- AC50 [21]: 4.23 µM (active)
- AC50 [22]: 46.9 µM (active)
- AC50 [23]: 14.7 µM (active)
- AC50 [24]: 4.83 µM (active)

SMILES: C[C@H](CO)N1C[C@H](C)[C@H](CN(C)Cc2ccc(Cl)c(Cl)c2)Oc2c(NC(=O)Nc3ccccc3)cccc2C1=O
- AC50 (HEK293 [19]): 18.8 µM (active)
- AC50 [20]: 18.8 µM (active)

SMILES: Cc1ccc(SCc2cn3ccccc3n2)cc1
- AC50 [25]: > 30 µM (inactive)

SMILES: Cn1ncc2c(Nc3ccc4ccccc4c3)ncnc21
- EC50 [26]: 1.89 µM (active)
- CC50 [27]: > 40 µM (active)

From ChEMBL document CHEMBL1201862, “PubChem BioAssay data set” (2004)
